Data: patent publication US7186754B2, “Use of creatine or creatine compounds for skin preservation” (Avicena Group, Inc., priority 1999, dated 2007)

Columns and labels:
[1] = test system: patients with cardiac diseases; settings: up to 8 grams/day, intravenous injection; cited from earlier work
mice = settings: up to 1% of diet for 2 weeks or over 4 weeks; cited from earlier work
[2] = cited from earlier work
chicks = settings: 1% cyclocreatine in diet, newly hatched chicks, cited from earlier work
[3] = test system: striatal tissue after malonate injections; test: salicylate hydroxyl radical trapping and 3-nitrotyrosine in striatum after intrastriatal malonate injection; assay type: in vivo; settings: 1% in diet for two weeks before intrastriatal malonate, FIG. 3
Source text: FIG. 3 depicts the production of 2,3 and 2,5 DHBA and 3 nitrotyrosine after intrastriatal injection of malonate in control animals fed with creatine and those fed with cyclocreatine. **p is less than 0.01 compared with uninjected side; #p is less than 0.05 compared with DHBA elevation in controls. Eight animals were used in each group.
The salicylate hydroxyl radical-trapping method was used for measuring levels of hydroxyl radicals in striatal tissue after malonate injections. Eight animals in each group were fed either a normal diet or a diet enriched with 1% creatine or 1% cyclocreatine for two weeks before intrastriatal malonate injections. Animals were injected with 200 mg/kg salicylate intraperitoneally just before the malonate injections and were killed 1 hour later. […] An aliquot of supernatant was analyzed by HPLC with the 16-electrode electrochemical detection (Beal et. al., 1990). Salicylate, 2,3 and 2,5 DHBA, tyrosine, 3-nitrotyrosine were measured electrochemically by oxidation at 840, 240, 120, 600 and 840 mV respectively with retention times of 20.5, 9.4, 6.3, 10.5, 18.2 min respectively. The data were expressed as the ratio of 2,3 and 2,5 DHBA to salicylate to normalize the DHBA concentrations for differing brain concentrations of salicylate. […] 3-Nitrotyrosine and tyrosine concentrations were measured by HPLC with electrochemical detection (Matthews 1998). […]

mice, rats and chicks = settings: fed to mice; cited from earlier work
[4] = 1% dietary cyclocreatine; cited from earlier work
creatine kinase = settings: forward reaction, in vitro and in vivo; cited from earlier work

Row | Compound | adverse side effects [1] | gross adverse effects (mice) | accumulation in different organs ([2]; animals fed e.g. 1% dietary cyclocreatine, mM concentrations) | uptake by muscle, heart and brain ([2]; rats receiving dietary 1% cyclocreatine) | mortality (chicks; in the presence of antibiotics) | growth compared with control chicks (chicks) | nitration of proteins (3-nitrotyrosine) induced by malonate [3] | levels of salicylate derivatives 2,3 DHBA and 2,5 DHBA after malonate ([3]; killed 1 hour later) | tolerability (mice, rats and chicks) | antiviral activity [4] | phosphorylation by creatine kinase (creatine kinase)
1 | N-phosphoryl creatine [creatine phosphate] | no adverse side effects | – | – | – | – | – | – | – | – | – | –
2 | NC1=NCCN1CC(=O)O [cyclocreatine, 1-carboxymethyl-2-iminoimidazolidine] | – | without gross adverse effects | accumulation of cyclocreatine in different organs in mM concentrations | taken up by muscle, heart and brain | without significant mortality | grew more slowly | protective effects | protect against increases | well-tolerated | observed | phosphorylated efficiently
